Laboratory results taken from patent publication US20080152640A1, “Means and Methods For Treating a Disease Which is Associated With an Excess Transport of Hyaluronan Across a Lipid Bilayer” (priority 2003, published 2008).
Where two headings read alike, the source gives them in different places.

What was measured:
MRP transporters = tested on: T1, MRP transporters; conditions: human erythrocytes; cited from earlier work
T1 construct: other: human erythrocytes

human skin fibroblasts = assay: Proliferation of human skin fibroblasts (cell counting); assay type: cell-based; conditions: for IC50: read-out: Proliferation (IC50)
Procedure: Human fibroblasts were grown in […] in Dulbecco's modified Eagles medium supplemented with streptomycin/penicillin (100 units of each/ml), kanamycin (100 units/ml) and 10% foetal calf serum. Cell proliferation was determined by cell counting after trypsinisation three days after seeding.

MRP4 = target: T2, MRP4 (Homo sapiens, UniProt O15439); conditions: cited from earlier work
T2 sequence (O15439 1-1325): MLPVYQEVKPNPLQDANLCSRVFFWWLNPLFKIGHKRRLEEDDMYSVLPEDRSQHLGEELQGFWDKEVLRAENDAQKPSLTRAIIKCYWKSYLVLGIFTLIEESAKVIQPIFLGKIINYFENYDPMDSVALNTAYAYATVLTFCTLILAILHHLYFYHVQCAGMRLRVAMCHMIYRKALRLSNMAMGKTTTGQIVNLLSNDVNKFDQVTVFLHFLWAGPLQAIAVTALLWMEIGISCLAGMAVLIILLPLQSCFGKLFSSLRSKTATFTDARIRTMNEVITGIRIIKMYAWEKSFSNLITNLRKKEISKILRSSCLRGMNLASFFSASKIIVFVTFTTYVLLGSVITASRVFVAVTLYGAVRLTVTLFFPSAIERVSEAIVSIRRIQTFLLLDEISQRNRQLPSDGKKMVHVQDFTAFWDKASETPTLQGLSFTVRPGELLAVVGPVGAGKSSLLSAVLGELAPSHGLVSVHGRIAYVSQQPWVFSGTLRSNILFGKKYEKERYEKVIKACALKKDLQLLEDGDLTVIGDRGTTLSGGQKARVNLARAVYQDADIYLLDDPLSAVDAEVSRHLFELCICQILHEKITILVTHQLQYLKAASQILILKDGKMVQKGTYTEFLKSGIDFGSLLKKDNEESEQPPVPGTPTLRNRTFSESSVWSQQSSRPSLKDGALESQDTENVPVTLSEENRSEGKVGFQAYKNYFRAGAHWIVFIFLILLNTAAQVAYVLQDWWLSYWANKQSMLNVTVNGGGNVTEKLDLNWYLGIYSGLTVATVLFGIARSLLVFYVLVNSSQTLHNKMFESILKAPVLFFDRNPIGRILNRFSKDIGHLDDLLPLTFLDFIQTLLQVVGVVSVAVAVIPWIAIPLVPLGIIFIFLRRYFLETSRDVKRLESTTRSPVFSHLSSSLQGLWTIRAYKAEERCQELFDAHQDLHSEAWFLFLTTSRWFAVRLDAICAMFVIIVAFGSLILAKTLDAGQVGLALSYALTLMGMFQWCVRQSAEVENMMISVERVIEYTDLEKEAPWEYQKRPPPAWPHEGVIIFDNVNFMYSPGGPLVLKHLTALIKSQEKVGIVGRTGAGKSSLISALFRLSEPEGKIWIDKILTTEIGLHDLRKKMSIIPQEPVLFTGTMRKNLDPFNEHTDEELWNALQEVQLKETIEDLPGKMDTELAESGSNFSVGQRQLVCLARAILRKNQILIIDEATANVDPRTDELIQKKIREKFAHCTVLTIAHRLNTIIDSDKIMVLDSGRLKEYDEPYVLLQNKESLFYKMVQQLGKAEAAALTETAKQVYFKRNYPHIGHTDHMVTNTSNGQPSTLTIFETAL

human fibroblasts [1] = assay: Hyaluronan production of human fibroblasts (ELISA of culture medium); assay type: cell-based; conditions: for IC50: read-out: HA production (IC50); for hyaluronan in culture medium: human skin fibroblasts / fibroblast cell line, increasing concentrations, 3 days
hyaluronan transport = assay: Inhibition of hyaluronan transport (export) from human fibroblasts, discussion of Example 9; conditions: for inhibition of hyaluronan transport (words): human fibroblasts; for IC50: Homo sapiens, Fibroblast, read-out: IC50 for hyaluronan transport (export)
Procedure: Cells from five culture flasks (180 cm2 growth area) were washed with cold phosphate buffered saline (PBS), harvested with the aid of a rubber policeman, sedimented at 1500 g for 5 min and suspended in 30 ml of ice-cold PBS. The cells were transferred into a Parr-cell disruption bomb, exposed to a nitrogen pressure of 900 psi for 15 min and disrupted by nitrogen cavitation [18] and the particulate fraction was obtained by centrifugation at 40000 g for 20 min. […] Hyaluronan synthesis was stopped by adding a solution of 10% sodium dodecylsuifate (SDS) to a final concentration of 1%. The mixtures were applied to descending paper chromatography that was developed with ethanol/aq. 1 M ammonium acetate pH 5.5 (13:7) as solvent. After 18 h the radioactivity of [14C]hyaluronan at the origin was determined.
Trypsinised fibroblasts were suspended in Dulbecco's medium at 10^5 cells/ml and 100 μl aliquots were transferred to a 96 well microtiter plate. The first row received 200 μl of the suspension and 20 μl of the multidrug resistance inhibitors dissolved in DMSO at concentrations of 4 mM. A serial dilution to the inhibitors was established by transfer of 100 μl aliquots from the first row to the following rows. All experiments were performed in duplicates. […] The cells were incubated for 2 days at 37° C. and aliquots (5 and 20 μl) of the culture medium were used for measurement of the hyaluronan concentration in the cell culture medium by an ELISA [19]. […] The mixtures were transferred to the hyaluronan-coated test plate and incubated for 1 hour at 37° C. The microtiter plate was washed three times with buffer A and incubated with 100 μl/well of a solution of streptavidin-horseraddish-peroxidase (Amersham) at a dilution of 1:100 in phosphate buffered saline, 0.1% Tween-20 for 30 min at room temperature. The plate was washed five times with buffer A and the colour was developed by incubation with a 100 μl/well of a solution of 5 mg o-phenylenediamine and 5 μl 30% H2O2 in 10 ml of 0.1 M citrate-phosphate buffer pH 5.3 for 25 min at room temperature. The adsorption was read at 490 nm. The concentrations in the samples were calculated from a logarithmic regression curve of the hyaluronan standard solutions.
Three parameters were measured: 1. The amount of hyaluronan produced during growth into the culture supernatant. 2. The hyaluronan synthase activity in particulate membrane fractions to eliminate the possibility that inhibition of hyaluronan production in cell culture could be caused indirectly by cellular mediators. 3. The effect on cell proliferation, because hyaluronan synthesis is also required for detachment during mitosis and growth of the human HT1080 cell line [14].

hyaluronan synthase = conditions: for IC50: read-out: HA synthase activity (IC50), membranes of human fibroblasts; for hyaluronan transport / synthase activity in membranes: membranes from human fibroblasts
MRP1 = MRP1 (Homo sapiens, UniProt P33527); conditions: cited from earlier work
chloride channel = conditions: cited from earlier work
ABCA = conditions: ABCA1; read-out: IC50, secretion of macrophage inhibitory factor (ABCA1); cited from earlier work
MDR1 = MDR1 (Homo sapiens, UniProt P08183); conditions: cited from earlier work
MRP3 = MRP3 (Homo sapiens, UniProt O15438); conditions: cited from earlier work
MRP5 = MRP5 (Homo sapiens, UniProt O15440); conditions: cited from earlier work
MRP2 = MRP2 (Homo sapiens, UniProt Q92887); conditions: cited from earlier work
membranes from HT29 = assay: Hyaluronan transport activity in isolated membranes from HT29; assay type: biochemical, human
[2] = tested on: osteoarthritic cartilage in rat knee joints; assay: Iodoacetate rat model of osteoarthritis, proteoglycan loss in knee cartilage; assay type: in vivo
Procedure: Osteoarthritic damage was induced in the left knees iodoacetate into the synovial cavity. The right knees remained untreated and served as controls. Three rates were feed with normal drinking water and three with drinking water containing Verapamil. After 17 days the rats were sacrificed and the articular cartilage was analysed histologically. Acid polysaccharides were stained with alcian blue and the preparation was counterstained with nuclear fast red.
The animal trials were performed in accordance with the guidelines of the local ethical committee. Osteoarthritic damage was induced in the left knees of 6 Wistar rats by injection of a solution of 50 μl of 10 mM iodoacetate into the synovial cavity. […] After 17 days the rats were sacrificed and the articular cartilage was analysed histologically. […]
Male Wistar rats (Charles River, Sulzfeld, Germany) having a body weight of 150 g were fed on ordinary laboratory diet and were housed in cages with a floor area of 800 cm^2. […] After 21 days, the rats were sacrificed and the articular cartilage was analysed by histology. […] Digital photos were taken and the blue colour of the proteoglycans was quantitatively evaluated by the free Scion Image Software. To eliminate staining artefacts, the staining of proteoglycans on the joint surface was related to the staining density at the […] and expressed as percent. […]

[3] = tested on: human synovial fibroblasts; assay: Growth of human synovial fibroblasts; assay type: cell-based
[4] = tested on: human synovial fibroblasts; assay: Hyaluronan production of human synovial fibroblasts; assay type: cell-based
HT29 = assay: Hyaluronan production of colon carcinoma cell line HT29 (versus HT29-mdr); conditions: increasing concentrations
Procedure: Cells were seeded in 24 multiwell dished with a diameter of 2 cm^2 at a density of 2×10^4 cells/cm^2 in Dulbecco's media containing 10% foetal bovine serum and increasing concentrations of inhibitors. After incubation for 3 days at 37° C. the cells were trypsinized and counted. The concentration of hyaluronan was determined in the culture medium by an ELISA assay [87].

human fibroblasts [5] = assay: Export of fluorescent hyaluronan oligosaccharides from the cytosol of human fibroblasts; assay type: cell-based
Procedure: The media were withdrawn and the cells were incubated at 37° C. with DMEM/water (3:2, v/v) for 2 min. The cells were subjected twice to this incubation sequence and then grown further in DMEM. […] Fluorescent high molecular weight hyaluronan and fluorescent oligosaccharides were introduced into the cytosol by osmotic lysis of pinocytotic vesicles. The kinetics of export was measured in a fluorescent ELISA reader in the presence and absence of the hyaluronan transport inhibitor benzbromaron.

[6] = Fibroblast, human fibroblasts, culture medium

MRP5, sequence (O15440 whole entry): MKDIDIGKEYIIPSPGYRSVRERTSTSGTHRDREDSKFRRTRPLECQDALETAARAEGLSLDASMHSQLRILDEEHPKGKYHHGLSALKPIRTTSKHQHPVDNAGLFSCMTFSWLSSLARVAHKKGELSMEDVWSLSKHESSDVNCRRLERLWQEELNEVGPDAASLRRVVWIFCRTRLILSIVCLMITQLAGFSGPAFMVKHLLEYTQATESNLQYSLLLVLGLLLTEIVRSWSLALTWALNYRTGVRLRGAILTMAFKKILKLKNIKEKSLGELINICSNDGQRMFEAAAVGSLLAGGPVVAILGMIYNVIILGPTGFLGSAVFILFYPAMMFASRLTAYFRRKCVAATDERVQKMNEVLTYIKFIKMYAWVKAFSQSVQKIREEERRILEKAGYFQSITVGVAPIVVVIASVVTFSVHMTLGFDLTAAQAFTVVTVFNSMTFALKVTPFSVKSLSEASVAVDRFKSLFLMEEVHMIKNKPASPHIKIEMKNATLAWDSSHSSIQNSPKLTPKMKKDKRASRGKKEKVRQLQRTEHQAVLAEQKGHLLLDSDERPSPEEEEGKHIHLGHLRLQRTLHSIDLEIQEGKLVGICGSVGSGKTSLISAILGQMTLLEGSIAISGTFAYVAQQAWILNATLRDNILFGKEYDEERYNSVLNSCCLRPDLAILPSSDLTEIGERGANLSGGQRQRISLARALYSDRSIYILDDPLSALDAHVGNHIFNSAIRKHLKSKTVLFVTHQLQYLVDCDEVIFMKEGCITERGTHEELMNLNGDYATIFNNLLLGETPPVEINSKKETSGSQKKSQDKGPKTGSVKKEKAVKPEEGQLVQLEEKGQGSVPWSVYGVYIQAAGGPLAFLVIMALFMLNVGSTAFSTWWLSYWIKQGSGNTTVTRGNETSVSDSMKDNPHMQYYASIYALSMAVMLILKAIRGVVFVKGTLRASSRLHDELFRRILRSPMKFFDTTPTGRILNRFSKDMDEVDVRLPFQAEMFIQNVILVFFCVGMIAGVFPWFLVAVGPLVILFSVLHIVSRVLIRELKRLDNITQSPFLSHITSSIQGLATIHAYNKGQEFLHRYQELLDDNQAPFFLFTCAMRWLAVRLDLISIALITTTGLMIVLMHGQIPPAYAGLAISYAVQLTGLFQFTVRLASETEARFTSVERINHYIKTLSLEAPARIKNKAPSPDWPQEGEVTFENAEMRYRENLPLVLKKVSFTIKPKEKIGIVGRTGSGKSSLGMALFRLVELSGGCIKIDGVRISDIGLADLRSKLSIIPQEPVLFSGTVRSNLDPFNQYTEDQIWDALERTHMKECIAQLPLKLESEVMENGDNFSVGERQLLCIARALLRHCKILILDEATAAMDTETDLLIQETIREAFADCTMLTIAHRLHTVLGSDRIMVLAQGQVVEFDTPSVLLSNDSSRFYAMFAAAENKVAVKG
MDR1, sequence (P08183 whole entry): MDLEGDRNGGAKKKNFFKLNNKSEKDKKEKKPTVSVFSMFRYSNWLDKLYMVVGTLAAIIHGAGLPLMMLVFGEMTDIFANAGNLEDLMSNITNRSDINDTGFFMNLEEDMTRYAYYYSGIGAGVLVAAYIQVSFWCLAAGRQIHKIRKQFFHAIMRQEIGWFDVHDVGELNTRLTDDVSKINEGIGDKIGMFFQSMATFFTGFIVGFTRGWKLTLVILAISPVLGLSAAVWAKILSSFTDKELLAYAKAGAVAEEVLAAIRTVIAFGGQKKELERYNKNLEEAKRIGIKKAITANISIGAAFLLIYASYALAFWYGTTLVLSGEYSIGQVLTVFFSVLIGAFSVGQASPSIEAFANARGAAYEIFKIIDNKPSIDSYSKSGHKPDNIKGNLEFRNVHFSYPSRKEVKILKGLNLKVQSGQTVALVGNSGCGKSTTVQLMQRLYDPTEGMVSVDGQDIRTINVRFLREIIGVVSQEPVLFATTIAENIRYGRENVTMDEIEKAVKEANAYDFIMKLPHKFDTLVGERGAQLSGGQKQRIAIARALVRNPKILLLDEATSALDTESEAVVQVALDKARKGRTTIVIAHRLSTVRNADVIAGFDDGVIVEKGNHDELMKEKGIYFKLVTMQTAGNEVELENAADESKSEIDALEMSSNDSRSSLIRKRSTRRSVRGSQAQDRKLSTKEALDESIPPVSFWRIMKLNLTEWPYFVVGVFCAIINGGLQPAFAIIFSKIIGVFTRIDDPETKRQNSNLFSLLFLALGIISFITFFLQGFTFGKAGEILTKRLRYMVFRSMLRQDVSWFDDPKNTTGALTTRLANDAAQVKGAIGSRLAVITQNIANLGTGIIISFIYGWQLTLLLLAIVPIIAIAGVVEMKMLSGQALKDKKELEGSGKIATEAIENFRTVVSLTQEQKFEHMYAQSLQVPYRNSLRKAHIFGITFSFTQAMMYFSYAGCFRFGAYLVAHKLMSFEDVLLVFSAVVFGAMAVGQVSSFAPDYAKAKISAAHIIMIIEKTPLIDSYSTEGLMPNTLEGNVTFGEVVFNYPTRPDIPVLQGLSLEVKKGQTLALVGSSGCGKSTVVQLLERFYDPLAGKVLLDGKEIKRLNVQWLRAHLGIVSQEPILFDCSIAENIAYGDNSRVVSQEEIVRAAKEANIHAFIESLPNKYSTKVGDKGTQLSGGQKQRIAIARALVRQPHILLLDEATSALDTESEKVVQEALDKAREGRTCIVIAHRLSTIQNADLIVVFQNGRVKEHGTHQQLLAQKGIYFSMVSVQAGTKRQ
MRP1, sequence (P33527 whole entry): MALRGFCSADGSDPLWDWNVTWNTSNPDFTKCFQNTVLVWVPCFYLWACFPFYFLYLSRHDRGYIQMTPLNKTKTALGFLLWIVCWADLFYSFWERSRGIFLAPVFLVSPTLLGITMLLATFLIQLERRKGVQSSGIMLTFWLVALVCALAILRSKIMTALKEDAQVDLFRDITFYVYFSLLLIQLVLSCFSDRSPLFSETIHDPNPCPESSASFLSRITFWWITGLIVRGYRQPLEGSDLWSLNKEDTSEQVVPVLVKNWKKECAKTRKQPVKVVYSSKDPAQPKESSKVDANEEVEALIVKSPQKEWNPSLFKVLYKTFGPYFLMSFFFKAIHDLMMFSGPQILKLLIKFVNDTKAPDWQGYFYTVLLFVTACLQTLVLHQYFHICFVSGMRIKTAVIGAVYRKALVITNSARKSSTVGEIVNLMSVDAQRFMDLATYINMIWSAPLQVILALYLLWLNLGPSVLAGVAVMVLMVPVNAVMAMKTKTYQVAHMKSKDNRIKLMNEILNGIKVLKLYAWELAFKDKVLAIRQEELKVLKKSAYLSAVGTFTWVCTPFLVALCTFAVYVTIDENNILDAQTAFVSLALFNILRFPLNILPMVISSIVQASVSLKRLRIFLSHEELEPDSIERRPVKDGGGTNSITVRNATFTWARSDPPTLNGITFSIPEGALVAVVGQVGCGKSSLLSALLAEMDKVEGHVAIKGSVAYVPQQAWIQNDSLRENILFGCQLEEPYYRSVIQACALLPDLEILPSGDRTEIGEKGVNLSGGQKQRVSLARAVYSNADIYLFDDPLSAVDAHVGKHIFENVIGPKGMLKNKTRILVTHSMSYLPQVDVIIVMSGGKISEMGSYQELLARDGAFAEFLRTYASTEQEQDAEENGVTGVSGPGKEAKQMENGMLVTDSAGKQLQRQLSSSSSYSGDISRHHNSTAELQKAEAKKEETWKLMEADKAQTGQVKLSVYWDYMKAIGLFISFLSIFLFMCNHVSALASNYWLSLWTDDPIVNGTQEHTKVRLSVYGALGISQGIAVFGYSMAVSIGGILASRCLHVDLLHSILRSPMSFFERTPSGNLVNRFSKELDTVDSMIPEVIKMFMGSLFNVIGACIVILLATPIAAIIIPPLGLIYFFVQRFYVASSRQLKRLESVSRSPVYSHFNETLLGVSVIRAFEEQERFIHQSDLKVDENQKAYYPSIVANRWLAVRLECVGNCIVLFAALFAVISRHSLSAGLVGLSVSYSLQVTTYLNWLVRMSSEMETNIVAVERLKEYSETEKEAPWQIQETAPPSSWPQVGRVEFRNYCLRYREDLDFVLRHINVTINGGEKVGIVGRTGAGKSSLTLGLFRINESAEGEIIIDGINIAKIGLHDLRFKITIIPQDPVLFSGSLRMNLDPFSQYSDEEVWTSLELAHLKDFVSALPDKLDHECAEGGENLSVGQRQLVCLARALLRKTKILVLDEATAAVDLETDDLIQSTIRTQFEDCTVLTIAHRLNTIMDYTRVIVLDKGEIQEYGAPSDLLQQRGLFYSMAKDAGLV

Compound	inhibition of hyaluronan transport (words) (hyaluronan transport)	IC50 (hyaluronan synthase) [µM]	IC50 (human skin fibroblasts; Homo sapiens, Skin fibroblast) [µM]	IC50 (human fibroblasts [1]; [6]) [µM]	hyaluronan in culture medium (human fibroblasts [1])	published inhibitory concentrations IC50 or Ki, MRP4 (MRP4)	published inhibitory concentrations IC50 or Ki, MRP3 (MRP3)	hyaluronan transport / synthase activity in membranes (hyaluronan synthase)	published inhibitory concentrations IC50 or Ki, MRP5 (MRP5)	published inhibitory concentrations IC50 or Ki, MRP2 (MRP2)	IC50 (human fibroblasts [1]; Homo sapiens, Fibroblast) [µM]	IC50 (hyaluronan transport) [µM]	other results
O=S(=O)(O)c1cc(N=C=S)ccc1C=Cc1ccc(N=C=S)cc1S(=O)(=O)O [DIDS, 4,4-diisothiocyanatostilbene-2,2-disulfonic acid]	partially	> 400	–	–	–	–	–	–	–	–	–	–	IC50 (MRP transporters): 150 to 300 µM; IC50 (human skin fibroblasts; human fibroblasts): 250 µM; IC50 (MRP4): 150 to 300 µM; IC50 (human fibroblasts [1]; human fibroblasts, culture medium): 50 µM; decrease of hyaluronan transport activity (hyaluronan synthase; membranes from human fibroblast cell line): 70%; IC50 (MRP1): 150 to 300 µM; Ki (chloride channel): 0.84 µM
COc1ccc(Cl)cc1C(=O)NCCc1ccc(S(=O)(=O)NC(=O)NC2CCCCC2)cc1 [Glyburide]	–	120	7	~400	partially inhibited	–	–	–	–	–	–	–	IC50 (ABCA): ~5 µM; concentration inhibiting MDR1 mediated export of colchicine (MDR1; substrate colchicine): about 100 μM; IC50 (MRP4; read-out: IC50, MRP4 mediated transport of cGMP, substrate cGMP, human erythrocytes): 1.9 µM; inhibition at 400 µM (human fibroblasts [1]; Homo sapiens, Fibroblast, even at 400 μM, read-out: inhibition of hyaluronan secretion): ≤ 50%
CN(Cc1cnc2nc(N)nc(N)c2n1)c1ccc(C(=O)N[C@@H](CCC(=O)O)C(=O)O)cc1 [methotrexate]	did not inhibit	> 400	~200	~200	–	substrate	substrate	did not inhibit	no	substrate	–	–	published inhibitory concentrations IC50 or Ki, MRP1 (MRP1): substrate
CCCCCCCCCCSC[C@H](NC(=O)CC[C@H](N)C(=O)O)C(=O)NCC(=O)O [S-decylglutathione]	very good inhibitor	40	–	7	–	good	low	–	good	good	–	–	–
COc1ccc(CCN(C)CCCC(C#N)(c2ccc(OC)c(OC)c2)C(C)C)cc1OC (stereo not drawn) [Verapamil]	inhibited also hyaluronan synthesis	~50	20	–	reduced	–	–	blocked the hyaluronan transport in a concentration dependent manner	–	–	15	~50	cell growth (human skin fibroblasts; human skin fibroblasts, increasing concentrations, 3 days): reduced; hyaluronan transport activity in membranes, sensitive cell line HT29 (membranes from HT29): inhibition is not complete; protection from proteoglycan loss ([2]; administered at the day of injury or three days later, analysed after 21 days): completely protected from proteoglycan loss; protection from proteoglycan loss ([2]; treatment started later than three days, up to 21 days after injury): partially prevent proteoglycan loss; growth of human synovial fibroblasts [3]: inhibited growth; hyaluronan production of human synovial fibroblasts [4]: inhibited; hyaluronan transport in HT29 compared with HT29-mdr (HT29): more efficiently blocked hyaluronan transport in HT29 than in HT29-mdr
CCc1oc2ccccc2c1C(=O)c1cc(Br)c(O)c(Br)c1 [Benzbromarone]	very effective inhibitor	12	75	–	–	–	–	almost completely inhibited	–	–	30	25	IC50 (MDR1): > 800 µM; IC50 (MRP4; read-out: IC50, 9-(2-phosphonomethoxyethyl)adenine (PMEA) transport by MRP4, substrate PMEA): 150 µM; IC50 (MRP4; read-out: IC50 for MRP4): 150 µM; IC50 (MRP4; read-out: published inhibitory concentrations IC50 or Ki, MRP4): 150 µM; export of fluorescent hyaluronan oligosaccharides from the cytosol (human fibroblasts [5]): inhibits the export; inhibition of hyaluronan transport (words) (hyaluronan transport; listed as benzbromarone): inhibited hyaluronan transport; IC50 (MRP5; read-out: IC50 for MRP5): 150 µM; IC50 (MRP5; substrate PMEA, read-out: IC50, PMEA transport by MRP5): 150 µM; IC50 (MRP5; substrate S-(2,4-dinitrophenyl)glutathione, read-out: IC50, MRP5 mediated transport of S-(2,4-dinitrophenyl)glutathione): < 5 µM
